Assay results: article PMC12196476, “New Nitrogen-, Oxygen-, and Sulfur-Containing Heterocyclic Compounds as Anti-Colon Cancer Agents: Synthesis, Multitargeted Evaluations, Molecular Docking Simulations and ADMET Predictions” (Pharmaceuticals, 2025)

Tests used:
[1] = DPPH radical scavenging assay; details: three independent experiments; read-out: Mean IC50 (mM) for initial DPPH radicals ± SD
Experimental: The antioxidant activities of the studied compounds were assessed using the 1,1-diphenyl-2-picrylhydrazyl (DPPH) radical scavenging method as detailed by Bersuder et al.. The results were expressed as IC50 (mM)—the concentration of the test compound required to neutralize 50% of DPPH radicals.
The antioxidant efficiencies of target compounds were determined using the 1,1-diphenyl-2-picrylhydrazyl (DPPH) radical scavenging method as detailed by Bersuder et al.. […]
S3.2. Evaluation of Biological Activities.
S3.2.1. In vitro DPPH radical scavenging assay.
The antioxidant efficiencies of compounds—3a−e, 8, 9a−c, 13, 14, 17, 18a−h, 20, 22, 23, and 25—were
determined using the 1,1-diphenyl-2-picrylhydrazyl (DPPH) radical scavenging method as
detailed by Bersuder et al.. Fundamentally, the purple color of the stabilized DPPH radical
fades in the presence of an antioxidant, thus, the change of absorbance can be followed
spectrophotometrically at 519 nm. In the assay, equal volumes (0.5 mL) of DPPH ethanolic solution
and each compound (0-2 mg/mL in DMSO) or butylated hydroxytoluene (BHT) as the reference
were mixed well by shaking. The negative control consisted of the same amount of DMSO and
DPPH solution. After, incubation all mixtures at room temperature in the dark for one hour, the
absorbance of the residual DPPH radicals was measured at 519 nm using the UV‐vis
spectrophotometer. The DPPH radical scavenging activity of each compound (%) was calculated
Scavenging activity = (1 − Acompound/AControl) * 100, where Acompound and Acontrol the absorbance values
of each tested compound (or BHT) and the negative control, respectively. The half maximal
inhibitory concentration (IC50) for each compound in mg/mL was deduced by graphing the dose-
response curve relating the scavenging activity (%) to the compound concentration. Data points
represent the mean ± standard deviation (SD) of three independent determinations.

[2] = biological target: PDK-1 (Homo sapiens, UniProt Q15118); test: In vitro PDK-1 inhibition assay (Kinase-Glo luminescent kinase kit); type: biochemical; details: 100 µg/mL, three replicates; read-out: Mean Inhibition Percent ± SD, PDK-1
Experimental: Principally, the PDK-1 inhibitory activities were evaluated using the non-radioactive Kinase-Glo™ Luminescent Kinase Kit (Promega Corporation, Madison, WI, USA) following the instructions of the manufacturer.
S3.2.2. In vitro PDK-1 inhibition assay.
The PDK-1 inhibitory activities of the test compounds were evaluated using the non-radioactive
Kinase-Glo™ Luminescent Kinase kit (Promega Corporation, Madison, WI, USA), following the
manufacturer’s protocol. Briefly, 5 μL of assay buffer—containing 10 × 250 mM Tris-HCl, 50 mM
MgCl2, 5 mM ethyleneglycol-bis(β-aminoethylether)-N,N,N′,N′-tetraacetic acid (EGTA), 10 mM
ethylenedi- aminetetraacetic acid (EDTA), and 10 mM dithiothreitol (DTT)—was added to each
well of a 96-well plate, along with 25 μL of distilled water. Subsequently, 5 μL of each test
compound at various concentrations (50, 100, 200 and 300 μg/mL in 1% DMSO) was added to the
respective wells, except for the two control wells, which received 5 μL of either PBS buffer or 1%
DMSO. Then, 5 μL of pyruvate dehydrogenase E1 (PDH E1) protein (10 μM) and 5 μL of ATP
(10 μM) were added to each well. To initiate phosphorylation, 5 μL of PDK-1 (20 μM) in protein
buffer (1 mM MgCl2, 2000 mM KCl, 40 mM K3PO4) was added to all the wells except the control
wells, which received 5 μL of protein buffer instead. The plate was then mixed thoroughly and
incubated at 37 °C for 30 minutes. After incubation, 50 μL of kinase-Glo® reagent was added to each
well, followed by a 10-minute incubation at room temperature with gentle shaking to stabilize the
luminescent signal. Luminescence was then measured using a microplate reader.
The IC50 value—defined as the concentration of a compound required to reduce luminescence by
50%, compared to untreated control wells—was determined for each compound from the
corresponding dose–response curve generated by plotting PDK-1 inhibition (%) versus compound
concentration. Sodium dichloroacetate (SDA, 1000 μM) was used as a reference PDK-1inhibitor. […]

[3] = biological target: recombinant human LDHA protein (Homo sapiens, UniProt P00338); test: In vitro LDHA inhibitory assay (NADH consumption); type: biochemical; details: for inhibition at 100 µg/mL: three replicates, read-out: Mean Inhibition Percent ± SD, LDHA
Text: The LDHA inhibitory efficiencies were investigated on Spectramax M2 spectrofluorometer via measuring the amounts of the consumed NADH^40 using an NAD^+/NADH quantification kit. […]
S3.2.3. In vitro LDHA inhibitory assay.
The LDHA inhibitory activity of the test compounds was investigated using Spectramax M2
spectrofluorometer by measuring the amounts of the consumed NADH [42] employing
NAD+/NADH quantification kit. Briefly, the assay medium containing various concentrations of
each test compound (50, 100, 200 and 300 μg/mL) was incubated in assay medium composed of 20
mM of HEPES-K+ buffer (pH 7.2), 20 μM of NADH, 2 mM of pyruvate and 10 ng of purified
recombinant human LDHA protein for 10 min utes. The activity of LDHA would result in reduction
of pyruvate into lactate with concomitant oxidation of NADH to NAD +. Since NADH (reduced
LDHA, could be inversely quantified by monitoring the change in the intensity of the fluorescence
at 340 nm over a 10-minute period. The rate of the fluorescence change (slope) in treated samples
was compared to that obtained from negative control experiment (100 % enzymatic activity) to
determine the percentage of inhibition. The IC50 value—defined as the compound concentration
required to reduce the luminescence by 50%, compared to untreated control wells—was
determined for each compound from the corresponding dose–response curve generated by
plotting LDHA inhibition (%) against compound concentration.
was used as the reference LDHA inhibitor. […]

[4] = test system: LoVo colon carcinoma cells; test: Cell viability, LDH release assay, LoVo; details: for viability at 100 µg/mL / IC50: Homo sapiens, LoVo, 48 h; for viability at 100 µg/mL: read-out: Mean % of viable cells ± SD, LoVo, 100 µg/mL, 48 h, LDH release assay; for IC50: read-out: Mean IC50 Values in µM ± SD, LoVo cells
Experimental: (§1) The studied compounds were also screened for their cytotoxic effects on HCT-116 and LoVo colon carcinoma cells, as well as normal HUVECs, using the standard LDH assay at a concentration of 100 µg/mL.
(§2) The antiproliferative activities of the newly synthesized compounds 3a–e, 8, 9a–c, 13, 14, 17, 18a–h, 20, 22, 23 and 25 were examined on human colon HCT-116 and LoVo cell lines as well as HUVEC (American Type Culture Collection, Manassas, VA, USA). […]
(§3) S3.2.4. Cell culture and viability assay.
(§4) The cytotoxic activities of the newly synthesized compounds (3a-e, 8, 9a-c, 13, 14, 17, 18a-h, 20, 22,
(§5) 23, and 25) were examined on human colon cancer cell lines HCT-116 and Lovo (American Type
(§6) Culture Collection, USA). Various concentrations (50, 100, 200, and 400 μg/mL) of test compounds
(§7) were prepared in Dulbecco’s Modified Eagles Medium (PAN-Biotech, Barcelona, Spain),

[5] = test system: HCT-116 colon carcinoma cells; test: Cell viability, LDH release assay, HCT-116; details: for viability at 100 µg/mL / IC50: Homo sapiens, HCT-116, 48 h; for viability at 100 µg/mL: read-out: Mean % of viable cells ± SD, HCT-116, 100 µg/mL, 48 h, LDH release assay; for IC50: read-out: Mean IC50 Values in µM ± SD, HCT-116 cells
Experimental: as §1, §2, §3, §4, §5, §6, §7

[6] = Cell viability, LDH release assay, normal HUVECs; details: human, normal HUVECs, Mean % of viable cells ± SD, HUVEC
Experimental: as §1, §2
medium served used as negative and positive controls, respectively. Percentages of viable cells […]
were calculated based on relative optical density (OD) values (at 550 nm) for compound-treated […]
wells (final concentration of 100 μg/mL), compared to the negative control, and expressed as mean value (%) ± SD from two replicates. Graphing dose-response curves representing the compound […]
concentration versus the percentages of viable cells was also conducted to deduce the half - […]
Additionally, the safety profiles of the studied compounds were assessed against normal cells […]
(HUVECs) at final concentration of 100 μg/mL . HUVECs were grown in Dulbecco’s Modified Eagle’s Medium supplemented with 10% FBS, 2 mM glutamine (Sigma Aldrich), 100 units/mL penicillin and […] streptomycin (Life Technologies; Paisley, UK). […]

[7] = 0.1% Triton X-100 in assay medium

PDK-1, sequence (Q15118 29-436): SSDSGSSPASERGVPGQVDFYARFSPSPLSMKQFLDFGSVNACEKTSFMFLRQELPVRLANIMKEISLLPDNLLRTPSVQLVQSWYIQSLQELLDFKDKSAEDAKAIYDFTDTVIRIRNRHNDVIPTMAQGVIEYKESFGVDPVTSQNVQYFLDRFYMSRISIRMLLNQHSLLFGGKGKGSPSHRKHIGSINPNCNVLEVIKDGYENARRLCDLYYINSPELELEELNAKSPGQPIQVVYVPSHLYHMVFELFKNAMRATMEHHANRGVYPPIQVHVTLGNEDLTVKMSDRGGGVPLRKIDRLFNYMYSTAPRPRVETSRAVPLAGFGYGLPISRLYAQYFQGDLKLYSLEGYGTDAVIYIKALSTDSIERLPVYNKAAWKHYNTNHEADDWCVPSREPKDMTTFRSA

Compound | IC50 [1] | inhibition at 100 µg/mL [2] | inhibition at 100 µg/mL [3] | IC50 [4] | IC50 [5] | inhibition at 1000 µM ([3]; SO at 1000 µM (111.03 µg/mL), read-out: Mean Inhibition Percent, LDHA (reference inhibitor)) | viability at 100 µg/mL [4] | viability at 100 µg/mL [5] | viability at 48 h, 100 µg/mL [6] | Mean % of viable cells, LoVo (positive control) [4, 7] | Mean % of viable cells, HCT-116 (positive control) [5, 7]
CCOC(=O)c1sc(/N=C/c2c(O)ccc3ccccc23)nc1C [Compound 9c, Ethyl(E)-2-(((2-hydroxynaphthalen-1-yl)methylene)amino)-4-methylthiazole-5-carboxylate] | 0.881 ± 0.041 mM | 48.8 ± 1.77% | 67.3 ± 3.32% | – | – | – | 60.3 ± 2.12% | 64.3 ± 3.06% | 80.7 ± 3.22% | – | –
O=c1[nH]cc(F)c(=O)[nH]1 [Compound 5-FU, 5-Fluorouracil, reference compound] | – | – | – | 20 ± 3.21 µM | 27 ± 1.87 µM | – | – | – | – | – | –
NC(=O)C(=O)O [SO, sodium oxamate, reference compound] | – | – | – | – | – | 100% | – | – | – | – | –
CCOC(=O)c1sc(/N=C/c2cc(Br)c(O)c(OC)c2)nc1C [Compound 9a, Ethyl (E)-2-((3-bromo-4-hydroxy-5-methoxybenzylidene)amino)-4-methyl thiazole-5-carboxylate] | 1.55 ± 0.035 mM | 26.9 ± 2.62% | 40.5 ± 2.19% | – | – | – | 65.3 ± 3.54% | 72 ± 2.65% | 70.3 ± 1.53% | – | –
Triton X-100 [reference compound] | – | – | – | – | – | – | – | – | – | 0% | 0%
CCOC(=O)c1sc(N2C(=O)CSCC2=O)nc1C [Compound 8, Ethyl 2-(3,5-Dioxothiomorpholino)-4-methylthiazole-5-carboxylate] | 1.52 ± 0.07 mM | 16.6 ± 2.19% | 23.2 ± 1.06% | 320 ± 7.44 µM | 410 ± 13.5 µM | – | 13.5 ± 0.71% | 26.5 ± 2.12% | 84.6 ± 2.54% | – | –
COc1cc(/C=N/c2ncnc3sc4c(c23)CCCC4)cc(Br)c1O [Compound 3c, (E)-2-Bromo-6-methoxy-4-(((5,6,7,8-tetrahydrobenzo[4,5]thieno[2,3-d]pyrimidin-4-yl)imino)methyl)phenol] | 0.476 ± 0.038 mM | 7.6 ± 0.85% | 40 ± 1.41% | – | – | – | 95.7 ± 1.53% | 89.3 ± 4.16% | 93 ± 2.65% | – | –
COc1cc(/C=C(\NC(=O)c2ccccc2)C(=O)NNC(=S)Nc2ccccc2)ccc1O [Compound 23, N-(1-(4-Hydroxy-3-methoxyphenyl)-3-oxo-3-(2-(phenylcarbamothionyl)hydrazinyl)prop-1-en-2-yl)benzamide] | 1.21 ± 0.03 mM | 11 ± 1.41% | 34.4 ± 3.32% | 444 ± 9.17 µM | 215.4 ± 1.25 µM | – | 57.5 ± 2.12% | 23 ± 2.83% | 80 ± 1.92% | – | –
Cc1cc(C(C)(C)C)c(O)c(C(C)(C)C)c1 [BHT, butylated hydroxytoluene, reference compound] | 0.245 ± 0.027 mM | – | – | – | – | – | – | – | – | – | –

Further lines, with some results ahead:

IC50 [1] | inhibition at 100 µg/mL [2] | inhibition at 100 µg/mL [3] | IC50 [4] | IC50 [5] | inhibition at 1000 µM ([3]; SO at 1000 µM (111.03 µg/mL), read-out: Mean Inhibition Percent, LDHA (reference inhibitor)) | Compound | viability at 100 µg/mL [4] | viability at 100 µg/mL [5] | viability at 48 h, 100 µg/mL [6] | Mean % of viable cells, LoVo (positive control) [4, 7] | Mean % of viable cells, HCT-116 (positive control) [5, 7]
0.781 ± 0.046 mM | 30 ± 1% | 36.8 ± 1.91% | – | – | – | COc1cc(OC)c(/C=N/n2c(C)nc3ccc(F)cc3c2=O)c(OC)c1 [Compound 18e, (E)-6-Fluoro-2-methyl-3-((2,4,6-trimethoxybenzylidene)amino)quinazolin-4(3H)-one] | 88.7 ± 3.21% | 87.3 ± 2.08% | 83 ± 3.61% | – | –
0.379 ± 0.004 mM | 37 ± 3.61% | 18.9 ± 1.77% | 479 ± 19.2 µM | 498 ± 12.6 µM | – | Cc1nc2ccc(F)cc2c(=O)n1/N=C/c1cccs1 [Compound 18h, (E)-6-Fluoro-2-methyl-3-((thiophen-2-ylmethylene)amino)quinazolin-4(3H)-one] | 33 ± 4.24% | 37 ± 2% | 78 ± 2% | – | –
0.288 ± 0.029 mM | 52 ± 3.61% | 14.4 ± 1.41% | – | – | – | Cc1nc2ccc(F)cc2c(=O)n1/N=C/c1c(O)ccc2ccccc12 [Compound 18f, (E)-6-Fluoro-3-(((2-hydroxynaphthalen-1-yl)methylene)amino)-2-methylquinazolin-4(3H)-one] | 73 ± 3.46% | 83 ± 3% | 83 ± 1.73% | – | –
